Measured values reported in patent US11421204B2, “Method of removing pluripotent cells from culture” (REPROCELL INCORPORATED, priority 2015, dated 2022).
“Also recorded” adds a separate entry of the source.

Experiments:
[1] = tested on: iPS cell (cell line 201B7); test: Evaluation of effects of ALA and/or SFC for iPS cell without photoirradiation (cell form); assay type: cell-based, human; conditions: ALA 1000 micro-M; observed 0, 4, 24, 48 hours after addition; no PDT
Text: As a pluripotent stem cell line, a human iPS cell line (iPSC) established at ReproCELL Inc. and subcultured 50 times was used. For on-feeder cultivation, the cell line of the pluripotent stem cell was maintained on mouse embryonic fibroblast (MEF) feeder cell (RCHEFC003, ReproCELL Inc.) processed by mitomycin C in a 60-mm polystyrene plate (dish) coated by ReproCoat (ReproCELL Inc.) with culture medium for pluripotent stem cells (Primate ES cell medium, RCHEMD001, ReproCELL Inc.) as like the conventional technique. ReproCoat was coated by using on a plate at the concentration of 0.2 micro-g/cm^2 and allowing to keep it at 4 degree-Celsius, overnight.
34 mg of ALA hydrochloride (M. W.=167.6, SBI Pharmaceuticals Co., Ltd.) was weighed, and 1000 micro-L of PBS (−) (Wako Pure Chemical Industries Ltd.) were added. Thereby, 200 mM ALA solution was prepared. The solution of the prepared ALA hydrochloride (hereinafter, it is only called as “ALA solution”) was stored on a freezer at −20 degree-C until use.

[2] = tested on: iPS cell (cell line 201B7); test: Evaluation of effects of ALA-PDT for iPS cell (cell form, ALP expression); assay type: cell-based, human; conditions: ALA 1000 micro-M and/or SFC 500 micro-M for 48 hours, blue LED 10 minutes, 24 hours afterward; Blue Alkaline Phosphatase Substrate Kit III
[3] = tested on: iPS cell (cell line 201B7); test: Comparison of effects by wavelength of photoirradiation of ALA-PDT for iPS cell; assay type: cell-based, human; conditions: ALA 100 or 1000 micro-M for 4 hours, red or blue LED 10 minutes, 24 hours afterward
Method: Then, the effect by the difference of the wavelength in the photoirradiation of ALA-PDT for a human iPS cell was compared.
Then, the cultured iPS cell was irradiated with red LED (wavelength of 635 nm) or blue LED (wavelength of 405 nm) for 10 minutes, and the cell form was observed 24 hours afterward.
Culture conditions were: used cell line: 201B7 and used culture-medium: Primate ES Cell Medium.

human iPS cell = test: Comparison of effects by ALA concentration of ALA-PDT for iPS cell (CCK8); assay type: cell-based
Method: Then, in ALA-PDT for the human iPS cell, the effects for changing the concentration of ALA were compared.
(§1) The iPS cell performed the passage process as well as an above-mentioned process was incubated for 2 to 4 minutes by using CTK (collagenase trypsin KSR) in 37 degree-C and then separated by pipetting.

[4] = tested on: normal human dermal fibroblast (HDF); test: Comparison of effects by ALA concentration of ALA-PDT for HDF (CCK8); assay type: cell-based; conditions: ALA 0-1000 micro-M, 4 hours, red LED 10 minutes, CCK8 24 hours afterward
Method: Also, the commercial normal human dermal fibroblast (CA106K05a, Cell Applications Inc., HDF) was used for comparative example(s).
as §1
About a normal human dermal fibroblast (HDF), based on the equivalent conditions as above-mentioned “comparison of effects by ALA hydrochloride concentration and photoirradiation of ALA-PDT for iPS cell”, the effects of the ALA concentration and ALA-PDT were compared.

[5] = tested on: neuron performed differentiation induction from the human iPS cell (ReproNeuro); test: Evaluation of effects of ALA-PDT for neuron originated from iPS cell; assay type: cell-based; conditions: red LED 10 minutes
Method: Then, the effects by ALA-PDT for the neuron performed differentiation induction from the human iPS cell (neuron originated from iPS cell) were evaluated. The used neuron was ReproNeuro. […] After that, the cell form was observed. Then, the cultured neuron was irradiated with red LED (wavelength of 635 nm) for 10 minutes, and the cell form was observed after 12-hour progresses (overnight). Then, it was exchanged the culture medium, which ALA was not included, and the cell form was observed after cultivating with exchanging the culture media for seven days.

[6] = tested on: hepatic cell originated from human iPS cell; test: Evaluation of effect of ALA-PDT for hepatic cells of iPS cell origin; assay type: cell-based
Method: The effect by ALA-PDT was evaluated for a hepatic cell originated from human iPS cell equivalent to the above-mentioned Example 1. At this example, the culture condition was plating 500,000 cells per well in a 24-well plate, then each concentration (0, 250, 500 micro-M) of ALA hydrochloride was added to the cell on the seventh day, photoirradiation was performed for 10 minutes by red LED 24 hours afterward, then form observation was carried out on the next day and after. The irradiation power of red LED was the same as that of above-mentioned case.

RC001 (iPS cell line) = test: ALA-PDT on iPS cell line RC001, cell survival by CCK8 (Example 2); assay type: cell-based, human; conditions: ALA hydrochloride 125-1000 micro-M, 4 or 24 hours, red LED 10 minutes, cell wraps r8-r10: SURVIVAL/PROLIFERATION SUPPRESSION
Method: (§2) As pluripotent stem cell lines, separately, for 201B7 cell line, which is equivalent as above-mentioned Example 1, and for RC001 and RC010 (ReproCELL Inc.), after maintaining as like above-mentioned Example 1, evaluations of the ALA effects were performed.
(§3) Then, each of them was cultivated with culture medium added ALA hydrochloride having concentration (0, 125, 250, 500, 1000 micro-M), respectively.

RC010 (iPS cell line) = test: ALA-PDT on iPS cell line RC010, cell survival by CCK8 (Example 2); assay type: cell-based, human; conditions: ALA hydrochloride 125-1000 micro-M, 4 or 24 hours, red LED 10 minutes, cell wraps r11-r13: SURVIVAL/PROLIFERATION SUPPRESSION
Method: as §2, §3

[7] = tested on: 201B7 cell line (iPS cell); test: ALA-PDT on iPS cell line 201B7, cell survival by CCK8 (Example 2); conditions: for rate of cell survival as compared with the control: 201B7
[8] = 250 micro-M ALA hydrochloride for 24 hours, red LED 10 minutes

| Compound | influence on the iPS cell (cell form, undifferentiated form) without photoirradiation [1] | undifferentiated state by expression of ALP after ALA-PDT [2] | expression of ALP (undifferentiated state) after ALA-PDT, red vs blue LED [3] | cell death of the iPS cell by ALA-PDT (human iPS cell; ALA concentration greater than or equal to 250 micro-M, 4 hours after addition red LED 10 minutes, CCK8 24 hours afterward) | cell death of iPS cell by ALA-PDT (human iPS cell; ALA concentration greater than or equal to about 100 micro-M, other experiment (not shown)) | induction of cell death of HDF by ALA-PDT (CCK8) [4] | survival of neuron after ALA-PDT ([5]; ALA 250, 500 micro-M for 4 hours, cultivation continued for seven days) | cell adhesion and neural spine seven days after ALA-PDT ([5]; seven days after adding 250 micro-M, 500 micro-M ALA) | form observation of hepatic cells 24 hours after LED irradiation [6, 8] | form observation of hepatic cells 48 hours after LED irradiation [6, 8] | protection of hepatic cells from ALA-PDT ([6]; 250 micro-M ALA, preliminary experiment) | survival of hepatic cells after ALA-PDT ([6]; ALA hydrochloride 250 and 500 micro-M, red LED 10 minutes, 24 and 60 hours after irradiation) | state of survived hepatic cells, 250 micro-M versus 500 micro-M (visual inspection) ([6]; ALA hydrochloride 250 vs 500 micro-M, red LED 10 minutes) | EFFECT BY ALA (RC001 (iPS cell line)) | EFFECT BY ALA (RC010 (iPS cell line)) | rate of cell survival as compared with the control ([7]; 250 micro-M ALA, after-addition time 4 hours, red LED 10 minutes, CCK8) | rate of cell survival as compared with the control ([7]; after-addition time 24 hours, red LED 10 minutes, CCK8) | EFFECT BY ALA ([7]; cell line 201B7, ALA hydrochloride 125-1000 micro-M, 4 or 24 hours, red LED 10 minutes, CCK8, cell wraps r5-r7: SURVIVAL/PROLIFERATION SUPPRESSION) | rate of cell survival with after-addition time longer than 24 hours, compared with 24 hours ([7]; preliminary experiment) |
| --- | --- | --- | --- | --- | --- | --- | --- | --- | --- | --- | --- | --- | --- | --- | --- | --- | --- | --- | --- |
| NCC(=O)CCC(=O)O [ALA, delta-aminolevulinic acid] | influence on the iPS cell was not observed | ALP became negative; also recorded: an undifferentiated iPS cell was no longer observed | it became impossible to maintain the undifferentiated state | ≥ 60% | ≥ 10% | induction of the cell death by ALA-PDT was not observed | continued surviving without extinction and recovered as like the condition before ALA addition | cell adhesion could be confirmed, and the neural spine was elongating in all of them | the cell with clear cobblestone morphology and nucleus remained | the cell with cobblestone morphology and nucleus continued surviving | it was protected | survived under the various conditions of ALA-PDT were present | the state of the survived cells under the condition of 250 micro-M were better than that of 500 micro-M | Survival and proliferation for each cell line were suppressed | Survival and proliferation for each cell line were suppressed | 65% | 7% | Survival and proliferation for each cell line were suppressed | there is no change the rate of cell survival |
| sodium ferrous citrate [SFC] | – | maintaining the undifferentiated-like state | – | – | – | – | – | – | – | – | – | – | – | – | – | – | – | – | – |
